According to patent US8536180B2, “Pyrimidine inhibitors of kinase activity” (AbbVie Inc., priority 2009, dated 2013):

biological target: T1, C-terminal GST-tagged, recombinant, human IGF-1R, amino acids 954-1367 (Homo sapiens, UniProt P08069); assay: IGF-1R homogenous time-resolved fluorescence (HTRF) in vitro kinase assay; type: biochemical; conditions: IGF-1R kinase, ATP 50 μM final, biotinylated peptide substrate 0.5 μM, 60 minutes at room temperature
T1 construct: human IGF-1R, amino acids 954-1367 expressed by baculovirus in Sf21 cells; GST (C); purchased Cell Signaling Technology; host or cells: baculovirus in Sf21 cells
Procedure: IGF-1R kinase activity was assayed by a homogenous time-resolved fluorescence (HTRF) in vitro kinase assay (Mathis, G., HTRF(R) Technology. J Biomol Screen, 1999. 4(6): p. 309-314). Specifically, 10 μL C-terminal GST-tagged, recombinant, human IGF-1R, amino acids 954-1367 expressed by baculovirus in Sf21 cells (Cell Signaling Technology) was mixed with 10 μL inhibitor (various concentrations, 2% final DMSO) and 10 μL of ATP (50 μM final concentration) in reaction buffer (50 mM HEPES, pH 7.5, 10 mM MgCl2, 2 mM MnCl2, 0.1% BSA and 1 mM DTT, 40 μL final volume). The reaction was initiated by addition of 10 μL of biotinylated peptide substrate (Biotin-Ahx-[…], 0.5 μM final concentration) in a black 384-well plate (Packard). After 60 minutes incubation at room temperature, the reaction was quenched by addition of 60 μL stop/revelation buffer to give 30 mM EDTA, 1 μg/mL streptavidin-APC (Prozyme), 50 ng/mL anti-phosphotyrosine mAb PT66-K Europium Cryptate, 30 mM HEPES, pH 7.5, 120 mM KF, 0.005% Tween-20, 0.05% BSA). The quenched reaction was allowed to stand at room temperature for 1 hour and then read in a time-resolved fluorescence detector (Envision, Perkin Elmer) at 615 nm and 665 nm simultaneously. The ratio between the signal of 615 nm and 665 nm was used in the calculation of the IC50.

T1 sequence (P08069 954-1367): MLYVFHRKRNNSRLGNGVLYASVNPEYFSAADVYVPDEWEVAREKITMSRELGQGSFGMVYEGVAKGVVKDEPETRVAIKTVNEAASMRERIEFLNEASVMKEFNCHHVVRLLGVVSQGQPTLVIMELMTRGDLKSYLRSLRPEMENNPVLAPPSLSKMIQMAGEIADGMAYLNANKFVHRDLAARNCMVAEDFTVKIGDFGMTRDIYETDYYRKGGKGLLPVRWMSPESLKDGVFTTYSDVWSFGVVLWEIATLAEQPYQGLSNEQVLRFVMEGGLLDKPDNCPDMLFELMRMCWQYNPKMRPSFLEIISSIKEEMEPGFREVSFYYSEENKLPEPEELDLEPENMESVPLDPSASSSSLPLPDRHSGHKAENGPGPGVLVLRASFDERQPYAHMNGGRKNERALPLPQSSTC

IC50 [µM]	SMILES
0.101 to 0.5	O=c1[nH]cccc1Nc1nccc(-c2c(-c3ccc4[nH]c(Cc5ccccc5)nc4c3)nc3ccccn23)n1 [Example 29, 3-({4-[2-(2-benzyl-1H-benzimidazol-5-yl)imidazo[1,2-a]pyridin-3-yl]pyrimidin-2-yl}amino)pyridin-2(1H)-one]
0.051 to 0.1	c1ccc(Cc2nc3ccc(-c4nc5sccn5c4-c4ccnc(Nc5ccccc5)n4)cc3[nH]2)cc1 [Example 23, 4-[6-(2-benzyl-1H-benzimidazol-6-yl)imidazo[2,1-b][1,3]thiazol-5-yl]-N-phenylpyrimidin-2-amine]
0.101 to 0.5	O=C1CCCN1c1cccc(Nc2nccc(-c3c[nH]nc3-c3ccc4[nH]c(Cc5ccccc5Cl)nc4c3)n2)c1 [Example 59, 1-{3-[(4-{3-[2-(2-chlorobenzyl)-1H-benzimidazol-5-yl]-1H-pyrazol-4-yl}pyrimidin-2-yl)amino]phenyl}pyrrolidin-2-one]
< 0.01	CN(C)CC(=O)Nc1cccc(Nc2nccc(-c3c(-c4ccc5nc(Cc6ccccc6)[nH]c5c4)nc4ccccn34)n2)c1 [Example 51, N^1-[3-({4-[2-(2-benzyl-1H-benzimidazol-6-yl)imidazo[1,2-a]pyridin-3-yl]pyrimidin-2-yl}amino)phenyl]-N^2,N^2-dimethylglycinamide]
< 0.01	COc1ccc(NC(=O)CN(C)C)cc1Nc1nccc(-c2c(-c3ccc4nc(Cc5ccccc5)[nH]c4c3)nc3ccccn23)n1 [Example 53, N^1-[3-({4-[2-(2-benzyl-1H-benzimidazol-6-yl)imidazo[1,2-a]pyridin-3-yl]pyrimidin-2-yl}amino)-4-methoxyphenyl]-N^2,N^2-dimethylglycinamide]
0.051 to 0.1	CS(=O)(=O)c1cccc(Nc2nccc(-c3c(-c4ccc5nc(Cc6ccccc6)[nH]c5c4)nc4ccccn34)n2)c1 [Example 16, 4-[2-(2-benzyl-1H-benzimidazol-6-yl)imidazo[1,2-a]pyridin-3-yl]-N-[3-(methylsulfonyl)phenyl]pyrimidin-2-amine]
0.01 to 0.05	CCn1cc(-c2ccnc(Nc3cccc(CN(C)C)c3)n2)c(-c2ccc3[nH]c(Nc4ccccc4)nc3c2)n1 [Example 62, 5-{4-[2-({3-[(dimethylamino)methyl]phenyl}amino)pyrimidin-4-yl]-1-ethyl-1H-pyrazol-3-yl}-N-phenyl-1H-benzimidazol-2-amine]
0.01 to 0.05	O=C1CCCN1c1cccc(Nc2nccc(-c3c(-c4ccc5[nH]c(Cc6ccccc6)nc5c4)nc4ccccn34)n2)c1 [Example 1, 1-[3-({4-[2-(2-benzyl-1H-benzimidazol-5-yl)imidazo[1,2-a]pyridin-3-yl]pyrimidin-2-yl}amino)phenyl]pyrrolidin-2-one]
< 0.01	COc1cc(N2CCOCC2)ccc1Nc1nccc(-c2c(-c3ccc4nc(Cc5ccccc5)[nH]c4c3)nc3ccccn23)n1 [Example 14, 4-[2-(2-benzyl-1H-benzimidazol-6-yl)imidazo[1,2-a]pyridin-3-yl]-N-(2-methoxy-4-morpholin-4-ylphenyl)pyrimidin-2-amine]
< 0.01	CN(C)CCc1cccc(Nc2nccc(-c3c(-c4ccc5[nH]c(Cc6ccccc6Cl)nc5c4)nc4ccccn34)n2)c1 [Example 5, 4-{2-[2-(2-chlorobenzyl)-1H-benzimidazol-5-yl]imidazo[1,2-a]pyridin-3-yl}-N-{3-[2-(dimethylamino)ethyl]phenyl}pyrimidin-2-amine]
0.101 to 0.5	CCn1cc(-c2ccnc(Nc3ccccc3OC)n2)c(-c2ccc3[nH]c(Cc4ccccc4OC)nc3c2)n1 [Example 65, 4-{1-ethyl-3-[2-(2-methoxybenzyl)-1H-benzimidazol-5-yl]-1H-pyrazol-4-yl}-N-(2-methoxyphenyl)pyrimidin-2-amine]
0.01 to 0.05	COc1cc(N(C)C)ccc1Nc1nccc(-c2c(-c3ccc4nc(Cc5ccccc5)[nH]c4c3)nc3sccn23)n1 [Example 31, N^1-{4-[6-(2-benzyl-1H-benzimidazol-6-yl)imidazo[2,1-b][1,3]thiazol-5-yl]pyrimidin-2-yl}-2-methoxy-N^4,N^4-dimethylbenzene-1,4-diamine]
> 0.5	c1ccc(Nc2nccc(-c3c(-c4ccc5nc(Nc6ccccc6)[nH]c5c4)nc4ccccn34)n2)cc1 [Example 19, 6-[3-(2-anilinopyrimidin-4-yl)imidazo[1,2-a]pyridin-2-yl]-N-phenyl-1H-benzimidazol-2-amine]
0.01 to 0.05	COc1cc(N2CCOCC2)ccc1Nc1nccc(-c2c(-c3ccc4nc(-c5ccccc5)[nH]c4c3)nc3ccccn23)n1 [Example 27, N-(2-methoxy-4-morpholin-4-ylphenyl)-4-[2-(2-phenyl-1H-benzimidazol-6-yl)imidazo[1,2-a]pyridin-3-yl]pyrimidin-2-amine]
< 0.01	COc1ccccc1Cc1nc2ccc(-c3nc4sccn4c3-c3ccnc(Nc4cccc(CCN(C)C)c4)n3)cc2[nH]1 [Example 8, N-{3-[2-(dimethylamino)ethyl]phenyl}-4-{6-[2-(2-methoxybenzyl)-1H-benzimidazol-6-yl]imidazo[2,1-b][1,3]thiazol-5-yl}pyrimidin-2-amine]
